Experimental data published in publication PMC6009888, “Design, synthesis, and pharmacological evaluation of 2-amino-5-nitrothiazole derived semicarbazones as dual inhibitors of monoamine oxidase and cholinesterase: effect of the size of aryl binding site” (Journal of Enzyme Inhibition and Medicinal Chemistry, 2017).
Several values for one entry are separate records, joined by “and”; a condition that tells them apart may be missing. Equal values may be shown once.

Columns and labels:
MAO-A = target: T1, MAO-A (Rattus norvegicus, UniProt P21396); test: In vitro MAO-A inhibition assay (rat brain mitochondria, serotonin substrate); format: biochemical; settings: rat brain mitochondria, serotonin substrate, mean ± SEM, triplicate; read-out: MAO-A In vitro IC50 (µM) ± SEM
T1 construct: employing crude rat brain mitochondrial suspension; from tissue; host or cells: brain mitochondria of adult Wistar rats
T1 sequence (P21396 1-526): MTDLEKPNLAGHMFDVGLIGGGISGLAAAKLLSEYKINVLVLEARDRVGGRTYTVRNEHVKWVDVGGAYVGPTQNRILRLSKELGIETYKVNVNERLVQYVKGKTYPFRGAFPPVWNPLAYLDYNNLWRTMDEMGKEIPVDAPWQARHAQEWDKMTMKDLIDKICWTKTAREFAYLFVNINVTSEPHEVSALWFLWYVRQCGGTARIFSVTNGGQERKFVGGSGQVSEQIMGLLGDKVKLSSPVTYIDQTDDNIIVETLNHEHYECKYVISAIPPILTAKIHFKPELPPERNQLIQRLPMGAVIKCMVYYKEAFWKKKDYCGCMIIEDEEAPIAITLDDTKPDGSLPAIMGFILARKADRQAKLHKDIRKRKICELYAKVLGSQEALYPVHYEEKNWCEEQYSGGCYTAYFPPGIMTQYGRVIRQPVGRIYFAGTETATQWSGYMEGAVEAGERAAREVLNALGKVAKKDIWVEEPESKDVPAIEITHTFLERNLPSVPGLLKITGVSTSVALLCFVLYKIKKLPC
Description: (§1) Rat brain mitochondria were used as a source of MAO isoforms. All operations were carried out at 4 °C[50]. Male and female adult Wistar rats weighing 200–220 g were decapitated. All brains were rapidly removed and homogenised with a Potter–Elvehjem homogeniser in cold 0.32 M sucrose and 50 mM Tris-HCl, pH 8.2 (10:1, v/w). The homogenate was centrifuged twice at 1000 g for 5 min at 4 °C. The resulting supernatant was centrifuged at 20,000 g for 20 min. The mitochondrial pellet obtained was suspended in 100 mM sodium phosphate buffer, pH 7.4 (4:1, v/w), fractionated in plastic vials to 500 µl samples and stored at −80 °C. Before use, mitochondria were diluted with 100 mM sodium phosphate buffer to give a working solution of 0.80 mg of protein per millilitre.
(§2) The experiments were carried out under all the suitable laboratory conditions. […] An aliquot was made to contain mixture of 55 µl mitochondrial suspension (0.80 mg of protein/ml), 90 µl 50 mM Tris-HCl buffer, pH 8.2 and 30 µl solubilising solution (control or inhibitor solution at five different concentrations). The reaction was initiated by adding 25 µl of serotonin (4 mM, substrate for MAO-A) and 25 µl benzylamine (0.1 M, substrate for MAO-B) for the determination of MAO-A and MAO-B activity, respectively. The mixture was incubated at 37 °C for 30 min and the reaction was stopped by the addition of 50 µl of 1 N HCl. The absorbance associated with the production of 5-hydroxyindolacetic acid was measured at 280 nm for the estimation of MAO-A while for MAO-B estimation, the absorbance was measured at 250 nm due to the formation of benzaldehyde. All the assays were performed in triplicate. Control experiments were carried out without inhibitor and blanks were run without mitochondrial suspension.
(§3) Data are expressed as mean ± standard error mean (SEM) of experiments performed in triplicate.
(§4) 0, 15, 30 and 60 min at 37 °C in Tris-HCl buffer (50 mM, pH 8.2). […] The reactions were further incubated at 37 °C for a further 15 min and the residual enzyme activities were measured and the bar graphs were constructed. All measurements were carried out in triplicate and are expressed as mean ± SEM.

MAO-B = target: T2, MAO-B (Rattus norvegicus, UniProt P19643); test: biochemical; settings: for MAO-B: fold less active than compound 13: isomeric dichloro derivatives; for SI (selectivity index for MAO-B): ratio of experimental IC50(MAO-A)/IC50(MAO-B)
T2 construct: employing crude rat brain mitochondrial suspension; from tissue; host or cells: brain mitochondria of adult Wistar rats
T2 sequence (P19643 1-520): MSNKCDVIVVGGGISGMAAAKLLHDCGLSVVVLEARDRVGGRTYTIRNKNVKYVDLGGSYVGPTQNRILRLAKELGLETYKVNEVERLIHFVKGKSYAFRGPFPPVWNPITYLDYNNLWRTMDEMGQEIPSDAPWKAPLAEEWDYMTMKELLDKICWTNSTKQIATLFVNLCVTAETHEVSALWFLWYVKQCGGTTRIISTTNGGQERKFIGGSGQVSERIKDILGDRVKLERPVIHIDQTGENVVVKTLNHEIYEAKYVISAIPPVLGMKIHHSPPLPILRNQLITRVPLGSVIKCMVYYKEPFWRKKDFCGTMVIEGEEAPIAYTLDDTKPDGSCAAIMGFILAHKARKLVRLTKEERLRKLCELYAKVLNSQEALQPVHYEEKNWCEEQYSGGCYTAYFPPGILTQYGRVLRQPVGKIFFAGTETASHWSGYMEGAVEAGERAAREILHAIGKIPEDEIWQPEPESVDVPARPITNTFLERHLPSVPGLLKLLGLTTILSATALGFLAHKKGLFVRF
Description: as §1, §2, §3, §4

rat brain AChE = target: T3, rat brain AChE (Rattus norvegicus, UniProt P37136); test: biochemical; format: biochemical; settings: for IC50: rat brain AChE, ACTI substrate, mean ± SEM, triplicate, read-out: AChE In vitro IC50 (µM) ± SEM
T3 construct: the resulting clear supernatants obtained were used as enzyme sources; from tissue; host or cells: rat brain cortex homogenate, 10,000 g supernatant
Description: Rat brain was used as a source of AChE enzyme. Rats were separately decapitated, the brain cortices quickly removed, weighed and homogenised in cold 10 mM Tris-HCl buffer, pH 7.2, containing 160 mM sucrose. The homogenates were centrifuged at 10,000 g for 10 min at 4 °C, and the resulting clear supernatants obtained were used as enzyme sources that were divided into aliquots and stored at −20 °C.
About 30 µl of enzyme sample (AChE) was added to 60 µl of 20 mM sodium phosphate buffer (pH 7.4) and were incubated in the presence of 30 µl of 10 mM DTNB solution with different concentrations of the test compounds. The enzyme reaction was initiated by the addition of 30 µl of 0.8 mM ACTI. The mixtures were incubated for 15 min at 25 °C. […] Control experiments were carried out without inhibitor, and blanks were run without AChE enzyme. All the assays were performed in triplicate. IC50 values were determined using the GraphPad Prism 5.0 (San Diego, CA) and the results were expressed as mean ± SEM.
0, 15, 30 and 60 min at 25 °C in sodium phosphate buffer (20 mM, pH 7.4) and DTNB solution (10 mM). […] The reaction was further incubated at 25 °C for a further 15 min and the residual enzyme activities were measured and the bar graphs were constructed. All measurements were carried out in triplicate and are expressed as mean ± SEM.

[1] = In vitro DPPH radical scavenging assay; settings: test sample 100 µg/ml, 100 µM methanolic DPPH, 30 min, 517 nm
Description: Antioxidant activity of the synthesised compounds (10 mg/ml) was evaluated using the radical scavenging capability against the stable free radical, 2,2′-diphenyl-1-picryl hydrazyl (DPPH·). The DPPH· scavenging capability was determined using UV based spectrophotometric assay. About 200 µl of the test sample solution (100 µg/ml) was added to 4 ml of 100 µM methanolic DPPH. […] Ascorbic acid (100 µg/ml) was used as reference. The percentage inhibition of DPPH activity was estimated using the formula: Percent (%) inhibition of DPPH activity = Acontrol-Asample/Acontrol×100 where Acontrol is the absorbance of DPPH· in methanol without an antioxidant and Asample is the absorbance of DPPH· in the presence of an antioxidant.

mice = test: Neurotoxicity screening (rotarod test); format: in vivo; settings: 30 mg/kg i.p.
Description: The neurotoxicity screening was undertaken according to the method followed by the National Institute of Health, using their reported procedures[55]^,[56]. Male albino mice (CF-1 strain or Swiss, 18–25 g) were used as experimental animals. The animals were housed in metabolic cages, and allowed free access to food and water. The test compounds were suspended in 0.5% methylcellulose/water mixture or in polyethylene glycol (PEG 200).
Minimal motor impairment was measured in mice by the rotarod test. The mice were trained to stay on an accelerating rotarod that rotates at six revolutions per minute. The rod diameter was 3.2 cm. Trained animals were given i.p. injection of the selected inhibitors at a dose of 30 mg/kg. Neurotoxicity was indicated by the inability of the animal to maintain equilibrium on the rod for at least 1 min in each of the three trials.

physchem = settings: octanol/water

T3 sequence (P37136 32-614): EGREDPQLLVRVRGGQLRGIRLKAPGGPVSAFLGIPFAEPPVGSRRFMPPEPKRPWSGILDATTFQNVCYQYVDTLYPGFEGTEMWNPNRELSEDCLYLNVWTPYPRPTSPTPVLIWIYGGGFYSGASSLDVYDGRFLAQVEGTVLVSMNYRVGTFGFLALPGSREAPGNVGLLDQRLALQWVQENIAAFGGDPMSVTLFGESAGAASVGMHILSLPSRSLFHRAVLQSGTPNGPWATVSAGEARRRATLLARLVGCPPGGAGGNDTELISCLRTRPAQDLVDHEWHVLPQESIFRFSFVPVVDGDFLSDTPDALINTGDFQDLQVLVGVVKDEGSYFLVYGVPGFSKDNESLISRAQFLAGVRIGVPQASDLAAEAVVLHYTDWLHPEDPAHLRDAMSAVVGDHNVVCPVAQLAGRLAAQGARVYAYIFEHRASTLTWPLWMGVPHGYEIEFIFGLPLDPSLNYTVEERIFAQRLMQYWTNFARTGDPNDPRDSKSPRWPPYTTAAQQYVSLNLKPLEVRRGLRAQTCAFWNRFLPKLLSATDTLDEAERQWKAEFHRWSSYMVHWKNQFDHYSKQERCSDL

Row | SMILES | IC50 (MAO-A) | IC50 (MAO-B) [µM] | MAO-B: fold less active than compound 13 (MAO-B) [fold] | SI (selectivity index for MAO-B) (MAO-B) | AChE: fold less active than compound 14 (rat brain AChE; isomeric dichloro derivatives) [fold] | IC50 (rat brain AChE) [µM] | % inhibition of DPPH activity [1] [%] | Neurotoxicity (animals that exhibit toxicity / animals tested) (mice; 0.5 h) | Neurotoxicity (animals that exhibit toxicity / animals tested) (mice; 1 h) | Neurotoxicity (animals that exhibit toxicity / animals tested) (mice; 2 h) | Neurotoxicity (animals that exhibit toxicity / animals tested) (mice; 4 h) | logP (physchem) | MAO-B: fold reduction in the activity (hydroxyl vs dichloro diaryl analogue 19) (MAO-B; diaryl analogues) [fold] | MAO-B: fold less active relative to compound 7 (MAO-B; ratio of IC50 values) [fold] | AChE: fold less active relative to compound 19 (rat brain AChE; diaryl analogues) [fold] | AChE: fold more active relative to compound 7 (rat brain AChE; ratio of IC50 values) [fold]
1 | O=C(NN=Cc1cccc(Cl)c1Cl)Nc1ncc([N+](=O)[O-])s1 [Compound 12, 1-(2,3-Dichlorobenzylidene)-4-(5-nitrothiazol-2-yl)semicarbazide] | 3369 ± 6.43 µM | 8.51 ± 0.132 | ~2.4 | 395.79 | ~9.4 | 101 ± 1.58 | 42.56 | 0/4 | 0/4 | 0/4 | 0/4 | 2.6 |  |  |  | 
2 | O=C(NN=Cc1ccc(Cl)cc1Cl)Nc1ncc([N+](=O)[O-])s1 [Compound 13, 1-(2,4-Dichlorobenzylidene)-4-(5-nitrothiazol-2-yl)semicarbazide] | 10470 ± 13.9 µM | 3.49 ± 0.098 |  | 3001.15 |  | 141 ± 3.11 | 39.39 | 0/4 | 0/4 | 0/4 | 0/4 | 2.5 |  |  |  | 
3 | O=C(NN=Cc1c(Cl)cccc1Cl)Nc1ncc([N+](=O)[O-])s1 [Compound 14, 1-(2,6-Dichlorobenzylidene)-4-(5-nitrothiazol-2-yl)semicarbazide] | 13910 ± 19.7 µM | 16.9 ± 0.37 | ~4.85 | 821.43 |  | 10.7 ± 0.56 | 55.29 |  |  |  |  | 3.1 |  |  |  | 
4 | O=C(NN=C(c1ccccc1)c1ccc(O)cc1)Nc1ncc([N+](=O)[O-])s1 [Compound 18, 1-((4-Hydroxyphenyl)(phenyl)methylene)-4-(5-nitrothiazol-2-yl)semicarbazide] | > 100 µM and 34300 µM | 158 ± 3.71 |  | 217.26 |  | 2.66 ± 0.084 | 10.77 | 0/4 | 0/4 | 0/4 | 0/4 | 2.9 | ~107 | ~10.7 | ~1.83 | ~4.97
5 | O=C(NN=C1C(=O)Nc2ccccc21)Nc1ncc([N+](=O)[O-])s1 [Compound 20, 4-(5-Nitrothiazol-2-yl)-1-(2-oxoindolin-3-ylidene)semicarbazide] | 2250 ± 12.8 µM | 4.51 ± 0.086 |  | 499.22 |  | 54.8 ± 0.92 | 47.16 | 0/4 | 0/4 | 0/4 | 0/4 | 1.1 |  |  |  | 
